In the NIST ThermoML archive (doi:10.1021/je300388b):

Test: xn = mol fraction of the nth substance listed
Conditions: Liquid

CCCCCCCCCC [decane] + O=C=O
Conditions | mass density [kg/m3]
323.34 K, 11990 kPa, x2 = 0.869 | 755.53
323.38 K, 14000 kPa, x2 = 0.869 | 767.56
333.09 K, 10020 kPa, x2 = 0.71 | 736.44
333.1 K, 11960 kPa, x2 = 0.71 | 741.69
333.12 K, 8090 kPa, x2 = 0.71 | 730.25
333.12 K, 17970 kPa, x2 = 0.4698 | 735.23
333.12 K, 18050 kPa, x2 = 0.71 | 756.13
333.13 K, 8020 kPa, x2 = 0.2361 | 715.58
333.13 K, 11990 kPa, x2 = 0.4698 | 726.89
333.13 K, 14000 kPa, x2 = 0.4698 | 729.82
333.13 K, 14030 kPa, x2 = 0.2361 | 721.58
333.13 K, 14050 kPa, x2 = 0.71 | 746.85
333.13 K, 15960 kPa, x2 = 0.4698 | 732.55
333.13 K, 16020 kPa, x2 = 0.2361 | 723.45
333.13 K, 19020 kPa, x2 = 0.2361 | 726.15
333.14 K, 9930 kPa, x2 = 0.4698 | 723.71
333.15 K, 10020 kPa, x2 = 0.2361 | 717.65
333.15 K, 12030 kPa, x2 = 0.2361 | 719.64
333.15 K, 16040 kPa, x2 = 0.71 | 751.6
333.15 K, 18020 kPa, x2 = 0.2361 | 725.24
333.19 K, 7980 kPa, x2 = 0.4698 | 720.48
333.19 K, 15930 kPa, x2 = 0.869 | 754.21
333.2 K, 18080 kPa, x2 = 0.869 | 762.91
333.22 K, 14070 kPa, x2 = 0.869 | 745.06
343.02 K, 10240 kPa, x2 = 0.71 | 720.54
343.02 K, 12280 kPa, x2 = 0.71 | 726.49
343.1 K, 12070 kPa, x2 = 0.4698 | 716.06
343.11 K, 16090 kPa, x2 = 0.4698 | 722.46
343.11 K, 19120 kPa, x2 = 0.4698 | 726.87
343.12 K, 14000 kPa, x2 = 0.71 | 730.99
343.13 K, 8070 kPa, x2 = 0.4698 | 708.84
343.13 K, 16030 kPa, x2 = 0.71 | 736.12
343.13 K, 18000 kPa, x2 = 0.71 | 741.08
343.14 K, 18000 kPa, x2 = 0.4698 | 725.25
343.16 K, 18050 kPa, x2 = 0.869 | 743.75
343.18 K, 9930 kPa, x2 = 0.4698 | 712.24
343.19 K, 13920 kPa, x2 = 0.4698 | 719
343.21 K, 12010 kPa, x2 = 0.2361 | 711.78
343.23 K, 16060 kPa, x2 = 0.869 | 735.77
343.23 K, 18020 kPa, x2 = 0.2361 | 718.14
343.24 K, 14010 kPa, x2 = 0.2361 | 713.97
343.24 K, 16010 kPa, x2 = 0.2361 | 716.11
343.25 K, 8010 kPa, x2 = 0.2361 | 707.17
343.25 K, 10010 kPa, x2 = 0.2361 | 709.51
343.26 K, 19020 kPa, x2 = 0.2361 | 719.17
352.97 K, 9880 kPa, x2 = 0.71 | 706.61
352.99 K, 18040 kPa, x2 = 0.869 | 719.9
353.01 K, 11990 kPa, x2 = 0.71 | 711.36
353.06 K, 16040 kPa, x2 = 0.4698 | 711.93
353.06 K, 19020 kPa, x2 = 0.2361 | 711.31
353.09 K, 14010 kPa, x2 = 0.4698 | 708.37
353.09 K, 18080 kPa, x2 = 0.4698 | 715.25
353.1 K, 12020 kPa, x2 = 0.2361 | 703.37
353.11 K, 10030 kPa, x2 = 0.2361 | 700.96
353.11 K, 14010 kPa, x2 = 0.2361 | 705.7
353.12 K, 10090 kPa, x2 = 0.4698 | 700.82
353.12 K, 17940 kPa, x2 = 0.71 | 725.1
353.12 K, 18020 kPa, x2 = 0.2361 | 710.21
353.12 K, 19060 kPa, x2 = 0.4698 | 716.77
353.13 K, 8010 kPa, x2 = 0.2361 | 698.4
353.13 K, 8040 kPa, x2 = 0.4698 | 696.42
353.13 K, 12050 kPa, x2 = 0.4698 | 704.69
353.13 K, 16020 kPa, x2 = 0.2361 | 707.98
353.14 K, 15980 kPa, x2 = 0.71 | 719.92
353.26 K, 14130 kPa, x2 = 0.71 | 715.78
362.92 K, 12050 kPa, x2 = 0.71 | 698.95
362.99 K, 18090 kPa, x2 = 0.71 | 712.19
363.08 K, 16050 kPa, x2 = 0.71 | 707.18
363.28 K, 14100 kPa, x2 = 0.71 | 702.89
